According to BindingDB's records for doi:10.1016/s0960-894x(01)00248-7 (Smithkline Beecham Pharmaceuticals, 2001):
“And” between values parts separate entries of the source, which are not always exact repeats. Identical values can stand only once.

Test: Agonistic activity of the compound against C-C chemokine receptor type 3 by displacing Eotaxin radioligand,using Esonophil chemotaxis assay

IC50: 32 nM and 25 nM
SMILES: COC(=O)[C@H](Cc1ccc([N+](=O)[O-])cc1)NC(=O)c1cccc2ccccc12 [(S)-2-[(Naphthalene-1-carbonyl)-amino]-3-(4-nitro-phenyl)-propionic acid methyl ester]
